From ChEMBL document CHEMBL1201862, “PubChem BioAssay data set” (2004)
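1) Cells in 96-well plates. 2) Compound, 48 h, 5 concentrations. 3) Linear interpolation between surrounding doses. 4) Unreached endpoint = highest concentration. GI50: concentration for 50% inhibition of growth.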 The source made the active and inactive calls. No stated cut-off is given here; in the data, active = GI50 up to about 1.1 µM and inactive = higher.

What was measured:
Assay in all cases: NCI-60 cell line screen, 48 h
UO-31 = test system: UO-31
SW-620 = test system: SW-620
A498 = test system: A498
HCT-116 = test system: HCT-116
ACHN = test system: ACHN
HOP-92 = test system: HOP-92
HT-29 = test system: HT-29
OVCAR-5 = test system: OVCAR-5
MOLT-4 = test system: MOLT-4
SF-295 = test system: SF-295
NCI-H226 = test system: NCI-H226
EKVX = test system: EKVX
SK-MEL-5 = test system: SK-MEL-5
SN12C = test system: SN12C
RXF 393 = test system: RXF 393
MCF7 = test system: MCF7
DU-145 = test system: DU-145
MDA-N = test system: MDA-N
Hs-578T = test system: Hs-578T
T47D = test system: T47D

| Compound | GI50 (UO-31) | GI50 (SW-620) | GI50 (A498) | GI50 (HCT-116) | GI50 (ACHN) | GI50 (HOP-92) | GI50 (HT-29) | GI50 (OVCAR-5) | GI50 (MOLT-4) | GI50 (SF-295) | GI50 (NCI-H226) | GI50 (EKVX) | GI50 (SK-MEL-5) | GI50 (SN12C) | GI50 (RXF 393) | GI50 (MCF7) | GI50 (DU-145) | GI50 (MDA-N) | GI50 (Hs-578T) | GI50 (T47D) |
| --- | --- | --- | --- | --- | --- | --- | --- | --- | --- | --- | --- | --- | --- | --- | --- | --- | --- | --- | --- | --- |
| COC(=O)C(C(=O)C(=O)Nc1ccc(C)cc1C)c1nc2ccc([N+](=O)[O-])cc2nc1O (stereo not drawn) | 76.2 µM (inactive) | > 100 µM (inactive) | > 100 µM (inactive) | > 100 µM (inactive) | > 100 µM (inactive) | > 100 µM (inactive) | > 100 µM (inactive) | > 100 µM (inactive) | > 100 µM (inactive) | > 100 µM (inactive) | > 100 µM (inactive) | > 100 µM (inactive) | > 100 µM (inactive) | > 100 µM (inactive) | > 100 µM (inactive) |  |  |  |  |  |
| Clc1cccc(/C=c2\nc(-c3ccccc3)n3c2nc2ccccc23)c1 | > 100 µM (inactive) | > 100 µM (inactive) | > 100 µM (inactive) | > 100 µM (inactive) |  | 4.38 µM (inactive) | > 100 µM (inactive) | > 100 µM (inactive) | > 100 µM (inactive) | 73.3 µM (inactive) | > 100 µM (inactive) | 28.5 µM (inactive) | > 100 µM (inactive) | > 100 µM (inactive) | 31.9 µM (inactive) | > 100 µM (inactive) | > 100 µM (inactive) | > 100 µM (inactive) | 98.6 µM (inactive) |  |
| CC(C)(C)OC(=O)NCCNC(=O)OCc1ccccc1 | > 100 µM (inactive) | > 100 µM (inactive) |  |  | > 100 µM (inactive) | > 100 µM (inactive) | > 100 µM (inactive) | > 100 µM (inactive) | > 100 µM (inactive) | > 100 µM (inactive) | > 100 µM (inactive) | > 100 µM (inactive) | 50.6 µM (inactive) | > 100 µM (inactive) | > 100 µM (inactive) | > 100 µM (inactive) | > 100 µM (inactive) | > 100 µM (inactive) | > 100 µM (inactive) |  |
| COC(=O)c1cc2c3c(ccc2[nH]1)N(C(=O)c1cc2c4c(ccc2[nH]1)N(C(=O)c1cc2c5c(ccc2[nH]1)N(C(N)=O)CC5)CC4)CC3 | 3.94 µM (inactive) | 7.85 µM (inactive) | 1.29 µM (inactive) | 2.24 µM (inactive) | 3.13 µM (inactive) | 2.03 µM (inactive) | 6.58 µM (inactive) | > 52.7 µM (inactive) | > 23 µM (inactive) | 3.12 µM (inactive) | 1.71 µM (inactive) | 2.17 µM (inactive) | 2.07 µM (inactive) | 2.97 µM (inactive) | 2.17 µM (inactive) |  |  |  |  |  |
| Cc1ccc(C(=O)C(C)N)cc1 (stereo not drawn) | > 100 µM (inactive) | > 100 µM (inactive) | > 100 µM (inactive) | > 100 µM (inactive) | > 100 µM (inactive) | > 100 µM (inactive) | > 100 µM (inactive) | > 100 µM (inactive) | > 100 µM (inactive) | > 100 µM (inactive) | > 100 µM (inactive) | > 100 µM (inactive) | > 100 µM (inactive) | > 100 µM (inactive) | > 100 µM (inactive) |  |  |  |  |  |
| Fc1ccccc1CN1COc2c(cc(Cl)c3cccnc23)C1 | 0.653 µM (active) | 3.08 µM (inactive) |  | 1.26 µM (inactive) | 0.533 µM (active) | 3.61 µM (inactive) | 7.85 µM (inactive) | 3.05 µM (inactive) | 0.239 µM (active) | 0.726 µM (active) | 0.624 µM (active) | 0.378 µM (active) | 0.713 µM (active) | 0.215 µM (active) | 13.9 µM (inactive) | 3.33 µM (inactive) | 2.62 µM (inactive) |  | 3.15 µM (inactive) | 3.6 µM (inactive) |
| N#Cc1c(-c2ccc(Cl)cc2)c(C#N)c(=O)n(NS(=O)(=O)c2ccccc2)c1O |  | 30.6 µM (inactive) | 24.9 µM (inactive) | 16.2 µM (inactive) | 25.9 µM (inactive) | 19.3 µM (inactive) | 34.8 µM (inactive) | 31 µM (inactive) | 22.5 µM (inactive) | 30.1 µM (inactive) | 28.2 µM (inactive) | 28.1 µM (inactive) | 17.1 µM (inactive) | 13.6 µM (inactive) | 21.8 µM (inactive) | 16.9 µM (inactive) |  | 19.8 µM (inactive) | 19.7 µM (inactive) |  |
| CC(C)(C)c1cc(/C=C2/NC(=O)NC2=O)cc(C(C)(C)C)c1O |  | 18.3 µM (inactive) | 14 µM (inactive) | 14.1 µM (inactive) | 11.8 µM (inactive) | 14.2 µM (inactive) | 11.7 µM (inactive) | 15.9 µM (inactive) | 17.1 µM (inactive) | 14.8 µM (inactive) | 14.8 µM (inactive) | 10.9 µM (inactive) | 13.7 µM (inactive) | 15.2 µM (inactive) | 6.25 µM (inactive) | 13 µM (inactive) | 15.6 µM (inactive) |  | 15.2 µM (inactive) | 2.91 µM (inactive) |
